For 39 compounds, IC50 results are on record in patent publication US10457655B2, “Compounds and compositions for inhibition of FASN” (FORMA Therapeutics, Inc., priority 2013, dated 2019).

The structures appear in SMILES notation. pIC50: −log10 of the molar value.

One may read the pIC50 as the negative decadic logarithm of the IC50, by convention in mol/L. The low end stands for a large IC50, the high end for a small IC50.

In the first experiment the target is FASN enzyme (Homo sapiens, UniProt P49327). Put plainly: Enzymatic Assay for FASN Inhibitors. The format is biochemical.
FASN enzyme, sequence (P49327 whole entry): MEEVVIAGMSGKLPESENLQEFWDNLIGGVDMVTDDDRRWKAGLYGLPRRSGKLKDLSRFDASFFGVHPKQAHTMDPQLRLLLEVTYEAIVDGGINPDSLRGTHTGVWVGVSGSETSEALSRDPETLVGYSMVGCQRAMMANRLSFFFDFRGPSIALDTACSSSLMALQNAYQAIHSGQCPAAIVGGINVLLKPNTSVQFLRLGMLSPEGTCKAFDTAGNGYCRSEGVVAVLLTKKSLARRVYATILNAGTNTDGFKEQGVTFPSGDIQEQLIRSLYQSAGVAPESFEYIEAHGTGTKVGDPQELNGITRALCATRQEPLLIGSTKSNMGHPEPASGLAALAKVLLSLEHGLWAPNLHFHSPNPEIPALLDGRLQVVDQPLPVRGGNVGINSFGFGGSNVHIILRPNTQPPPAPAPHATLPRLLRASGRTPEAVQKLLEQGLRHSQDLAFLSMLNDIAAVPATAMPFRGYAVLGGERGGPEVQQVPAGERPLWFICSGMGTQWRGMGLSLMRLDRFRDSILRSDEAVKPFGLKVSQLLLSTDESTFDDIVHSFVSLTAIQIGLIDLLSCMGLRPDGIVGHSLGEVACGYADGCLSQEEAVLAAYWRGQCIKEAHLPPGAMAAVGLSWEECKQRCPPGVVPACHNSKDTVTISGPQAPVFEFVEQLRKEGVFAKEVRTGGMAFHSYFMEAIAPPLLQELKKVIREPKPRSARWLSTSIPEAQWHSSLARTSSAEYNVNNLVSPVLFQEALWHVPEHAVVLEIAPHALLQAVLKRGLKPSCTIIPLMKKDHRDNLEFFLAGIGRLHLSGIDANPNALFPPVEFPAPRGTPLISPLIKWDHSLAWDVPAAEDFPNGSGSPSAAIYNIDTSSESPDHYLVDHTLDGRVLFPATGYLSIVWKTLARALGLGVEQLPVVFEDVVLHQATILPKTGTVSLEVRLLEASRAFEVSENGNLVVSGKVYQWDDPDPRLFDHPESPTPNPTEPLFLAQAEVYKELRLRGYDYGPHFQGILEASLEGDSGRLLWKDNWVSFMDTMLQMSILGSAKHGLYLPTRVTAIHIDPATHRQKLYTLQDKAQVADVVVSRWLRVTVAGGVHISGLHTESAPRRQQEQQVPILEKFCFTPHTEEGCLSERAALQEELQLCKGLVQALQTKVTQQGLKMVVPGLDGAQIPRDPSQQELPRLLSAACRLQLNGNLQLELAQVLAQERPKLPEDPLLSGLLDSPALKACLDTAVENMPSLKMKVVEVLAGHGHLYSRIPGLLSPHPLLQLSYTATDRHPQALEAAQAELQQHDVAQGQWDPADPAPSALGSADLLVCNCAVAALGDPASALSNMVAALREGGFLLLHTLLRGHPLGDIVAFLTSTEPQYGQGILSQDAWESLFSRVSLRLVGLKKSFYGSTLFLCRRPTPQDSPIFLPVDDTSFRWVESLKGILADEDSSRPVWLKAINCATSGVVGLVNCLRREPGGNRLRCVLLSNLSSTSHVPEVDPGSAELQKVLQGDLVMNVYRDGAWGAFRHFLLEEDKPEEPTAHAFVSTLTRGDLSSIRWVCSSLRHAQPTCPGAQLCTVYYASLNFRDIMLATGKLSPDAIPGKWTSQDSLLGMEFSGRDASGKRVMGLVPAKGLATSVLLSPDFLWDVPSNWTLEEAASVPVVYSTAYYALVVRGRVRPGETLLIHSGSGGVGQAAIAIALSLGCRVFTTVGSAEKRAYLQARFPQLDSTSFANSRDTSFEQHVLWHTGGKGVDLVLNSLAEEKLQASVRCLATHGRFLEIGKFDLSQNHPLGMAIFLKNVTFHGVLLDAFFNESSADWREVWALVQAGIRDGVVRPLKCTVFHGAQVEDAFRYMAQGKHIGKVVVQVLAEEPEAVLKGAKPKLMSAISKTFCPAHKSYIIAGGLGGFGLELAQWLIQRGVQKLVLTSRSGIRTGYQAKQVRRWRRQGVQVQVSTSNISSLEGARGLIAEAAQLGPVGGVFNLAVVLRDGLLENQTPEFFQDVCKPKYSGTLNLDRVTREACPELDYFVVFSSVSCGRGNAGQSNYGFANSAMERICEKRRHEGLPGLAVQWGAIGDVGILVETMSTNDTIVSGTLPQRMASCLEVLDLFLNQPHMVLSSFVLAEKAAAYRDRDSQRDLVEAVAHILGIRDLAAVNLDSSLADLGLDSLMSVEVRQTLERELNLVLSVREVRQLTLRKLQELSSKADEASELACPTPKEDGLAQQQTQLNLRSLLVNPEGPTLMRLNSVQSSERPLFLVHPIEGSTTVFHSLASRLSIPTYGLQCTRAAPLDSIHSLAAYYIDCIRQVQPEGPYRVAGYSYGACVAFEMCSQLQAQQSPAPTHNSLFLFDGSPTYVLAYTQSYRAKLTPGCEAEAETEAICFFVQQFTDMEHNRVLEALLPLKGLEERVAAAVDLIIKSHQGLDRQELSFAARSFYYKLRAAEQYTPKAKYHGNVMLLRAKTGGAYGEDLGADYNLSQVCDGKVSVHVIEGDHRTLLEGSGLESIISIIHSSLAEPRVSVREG
Conditions: not given
In outline:
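40 nM FASN preincubated with compound 60 min at 25° C in HEPES pH 7.3 buffer with 0.04% Triton X-100. Then 20 μM acetyl-CoA, 60 μM malonyl-CoA and 100 μM NADPH added for 90 min, quenched with CPM thiol probe; fluorescence 360/530 nm, IC50 by four-parameter fit.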
Compound `O=C(c1ccc(-c2cccc(N3CCNC3=O)c2)cc1)N1CCN(C(=O)C2(O)CC2)CC1` [1-(3-{4-[4-(1-hydroxycyclopropanecarbonyl)piperazine-1-carbonyl]phenyl}phenyl)imidazolidin-2-one] gave a pIC50 greater than 6.30.
In the case of `Cc1n[nH]c2cc(-c3ccc(C(=O)N4CCN(C(=O)C5(O)CC5)CC4)c(F)c3)ccc12`, the negative logarithm of the IC50 (pIC50) is greater than 6.30.
`Cn1cnc2cc(-c3ccc(C(=O)N4CCN(C(=O)C5(O)CC5)[C@@H](CO)C4)cc3)ccc21` [1-[(2R)-2-(hydroxymethyl)-4-[4-(1-methyl-1H-1,3-benzodiazol-5-yl)benzoyl]piperazine-1-carbonyl]cyclopropan-1-ol] gave a pIC50 greater than 6.30.
In turn, `C[C@@H]1CN(C(=O)C2(O)CC2)CCN1C(=O)c1ccc(-c2ccc3c(c2)ncn3C)cc1` [1-[(3R)-3-methyl-4-[4-(1-methyl-1H-1,3-benzodiazol-5-yl)benzoyl]piperazine-1-carbonyl]cyclopropan-1-ol] showed a pIC50 greater than 6.30.
Still for that read-out and setting: as for `C[C@H]1CN(C(=O)C2(O)CC2)CCN1C(=O)c1ccc(-c2nc3ccc(F)cc3o2)cc1` [1-[(3S)-4-[4-(6-fluoro-1,3-benzoxazol-2-yl)benzoyl]-3-methylpiperazine-1-carbonyl]cyclopropan-1-ol], the figure is greater than 6.30.
Still for that read-out and setting: as for `Cc1n[nH]c2ncc(-c3ccc(C(=O)N4CCN(C(=O)C5(O)CC5)CC4)cc3)cc12` [1-[4-(4-{3-methyl-1H-pyrazolo[3,4-b]pyridin-5-yl}benzoyl)piperazine-1-carbonyl]cyclopropan-1-ol], the figure is greater than 6.30.
In the case of `Cn1cnc2cc(-c3ccc(C(=O)N4CCN(C(=O)C5CCO5)CC4)cc3)ccc21` (stereo not drawn) [1-methyl-5-{4-[4-(oxetane-2-carbonyl)piperazine-1-carbonyl]phenyl}-1H-1,3-benzodiazole], the negative-log IC50 (pIC50) was greater than 6.30.
Consider `Cn1cnc2cc(-c3ccc(C(=O)N4CCN(C(=O)C5(N)CC5)CC4)cc3)ccc21` [1-{4-[4-(1-methyl-1H-1,3-benzodiazol-5-yl)benzoyl]piperazine-1-carbonyl}cyclopropan-1-amine], for which the negative-log IC50 (pIC50) is greater than 6.30.
On the same count and under the same terms, the figure for `Cn1ccc2cc(-c3ccc(C(=O)N4CCN(C(=O)C5(O)CC5)CC4)cn3)ccc21` is greater than 6.30; for `CNC(=O)COc1cccc(-c2ccc(C(=O)N3CCN(C(=O)C4(O)CC4)CC3)cc2)c1` [2-(3-{4-[4-(1-hydroxycyclopropanecarbonyl)piperazine-1-carbonyl]phenyl}phenoxy)-N-methylacetamide] it is greater than 6.30.
In the case of `Cn1cnc2cc(-c3ccc(C(=O)N4CCN(C(=O)C5(N)CC5)CC4)c(F)c3)ccc21` [1-{4-[2-fluoro-4-(1-methyl-1H-1,3-benzodiazol-5-yl)benzoyl]piperazine-1-carbonyl}cyclopropan-1-amine], the pIC50 was greater than 6.30.
Compound `N#Cc1ccc2c(c1)CN(c1ccc(C(=O)N3CCN(C(=O)C4(O)CC4)CC3)cc1)CC2` [2-{4-[4-(1-hydroxycyclopropanecarbonyl)piperazine-1-carbonyl]phenyl}-1,2,3,4-tetrahydroisoquinoline-7-carbonitrile] showed a pIC50 greater than 6.30.
On the same count and under the same terms, as for `O=C(c1ccc(-c2cccc(S(=O)(=O)C3CC3)c2)c(Cl)c1)N1CCN(C(=O)C2(O)CC2)CC1`, the figure is greater than 6.30.
On the same count and under the same terms, the figure for `O=C(c1ccc(-c2ccc3c(C4CC4)n[nH]c3c2)cc1)N1CCN(C(=O)C2(O)CC2)CC1` [1-{4-[4-(3-cyclopropyl-1H-indazol-6-yl)benzoyl]piperazine-1-carbonyl}cyclopropan-1-ol] is greater than 6.30; for `Cc1nc2ccccc2n1-c1ccc(C(=O)N2CCN(C(=O)C3(O)CC3)CC2)cc1` [1-{4-[4-(2-methyl-1H-1,3-benzodiazol-1-yl)benzoyl]piperazine-1-carbonyl}cyclopropan-1-ol] it is greater than 6.30; for `O=C(c1ccc(N2CCc3cccnc3C2)cc1F)N1CCN(C(=O)C2(O)CC2)CC1` [1-{4-[2-fluoro-4-(5,6,7,8-tetrahydro-1,7-naphthyridin-7-yl)benzoyl]piperazine-1-carbonyl}cyclopropan-1-ol] it is greater than 6.30.
Take `Cc1nc2cc(-c3ccc(C(=O)N4CCN(C(=O)C5(O)CC5)CC4)cc3)ccc2[nH]1` [1-{4-[4-(2-methyl-1H-1,3-benzodiazol-5-yl)benzoyl]piperazine-1-carbonyl}cyclopropan-1-ol]: the pIC50 is greater than 6.30.
The same measure, in the same setting: the figure for `Cn1ccc2cc(-c3ccc(C(=O)N4CCN(C(=O)C5(O)CC5)CC4)cc3)ccc21` [1-[(4-{[4-(1-methyl-1H-indol-5-yl)phenyl]carbonyl}piperazin-1-yl)carbonyl]cyclopropan-1-ol] is greater than 6.30.
Consider `O=C(c1ccc(-c2ccc(Cl)c(F)c2)cc1)N1CCN(C(=O)C2(O)CC2)CC1` [1-[(4-{[4-(4-chloro-3-fluorophenyl)phenyl]carbonyl}piperazin-1-yl)carbonyl]cyclopropan-1-ol], for which the negative logarithm of the IC50 (pIC50) was greater than 6.30.
On the same count and under the same terms, the figure for `O=C(NC1CC1)c1cccc(-c2ccc(C(=O)N3CCN(C(=O)C4(O)CC4)CC3)cc2)c1` [N-cyclopropyl-3-[4-({4-[(1-hydroxycyclopropyl)carbonyl]piperazin-1-yl}carbonyl)phenyl]benzamide] is greater than 6.30.
`Nc1n[nH]c2ccc(-c3ccc(C(=O)N4CCN(C(=O)C5(O)CC5)CC4)cc3)cc12` [1-{4-[4-(3-amino-1H-indazol-5-yl)benzoyl]piperazine-1-carbonyl}cyclopropan-1-ol]: the pIC50 was greater than 6.30.
Still for that read-out and setting: as for `O=C(c1ccc(N2CCc3sccc3C2)cc1)N1CCN(C(=O)C2(O)CC2)CC1` [1-[4-(4-{4H,5H,6H,7H-thieno[3,2-c]pyridin-5-yl}benzoyl)piperazine-1-carbonyl]cyclopropan-1-ol], the figure is greater than 6.30; as for `C[C@H]1CN(C(=O)c2ccc(-c3nc4ccc(F)cc4o3)cc2)CCN1C(=O)C1(N)CC1` [1-[(2S)-4-[4-(6-fluoro-1,3-benzoxazol-2-yl)benzoyl]-2-methylpiperazine-1-carbonyl]cyclopropan-1-amine], greater than 6.30; as for `C[C@H]1CN(C(=O)c2ccc(N3CCc4cccnc4C3)cc2)CCN1C(=O)C1(O)CC1` [1-[(2S)-2-methyl-4-[4-(5,6,7,8-tetrahydro-1,7-naphthyridin-7-yl)benzoyl]piperazine-1-carbonyl]cyclopropan-1-ol], greater than 6.30.
On the same count and under the same terms, the figure for `Cn1ncc2ccc(-c3ccc(C(=O)N4CCN(C(=O)C5(N)CC5)CC4)cc3)cc21` is greater than 6.30.

The experiment is the same for the next values; noted with them: FASN enzymatic assay; Table 2-2.
For `O=C(c1ccc(-c2nc3c(Cl)cccc3[nH]2)cc1)N1CCN(C(=O)C2(O)CC2)CC1` [1-[(4-{[4-(4-chloro-1H-1,3-benzodiazol-2-yl)phenyl]carbonyl}piperazin-1-yl)carbonyl]cyclopropan-1-ol], the pIC50 is 5.30 to 6.30.
Still for that read-out and setting: as for `O=C(c1ccc(-c2ccc(Cl)cc2F)cc1)N1CCN(C(=O)C2(O)CC2)C[C@H]1CO` [1-{[(3S)-4-{[4-(4-chloro-2-fluorophenyl)phenyl]carbonyl}-3-(hydroxymethyl)piperazin-1-yl]carbonyl}cyclopropan-1-ol], the figure is 5.30 to 6.30; as for `O=C(c1ncc(-c2ccc3ncccc3c2)cn1)N1CCN(C(=O)C2(O)CC2)CC1` [1-[(4-{[5-(quinolin-6-yl)pyrimidin-2-yl]carbonyl}piperazin-1-yl)carbonyl]cyclopropan-1-ol], 5.30 to 6.30.
Still for that read-out and setting: as for `COc1ccc2cc(-c3ccc(C(=O)N4CCN(C(=O)C5(O)CC5)CC4)cn3)ccc2n1` [1-[(4-{[6-(2-methoxyquinolin-6-yl)pyridin-3-yl]carbonyl}piperazin-1-yl)carbonyl]cyclopropan-1-ol], the figure is 5.30 to 6.30; as for `COc1cc(-c2cnc3ccccc3c2)ccc1C(=O)N1CCN(C(=O)C2(O)CC2)CC1` [1-[(4-{[2-methoxy-4-(quinolin-3-yl)phenyl]carbonyl}piperazin-1-yl)carbonyl]cyclopropan-1-ol], 5.30 to 6.30.
In turn, `O=C(c1ccc(-c2ccc(Cl)cc2F)cn1)N1CCN(C(=O)C2(O)CC2)CC1` [1-[(4-{[5-(4-chloro-2-fluorophenyl)pyridin-2-yl]carbonyl}piperazin-1-yl)carbonyl]cyclopropan-1-ol] gave a pIC50 of 5.30 to 6.30.
The same measure, in the same setting: as for `O=C(c1ncc(-c2ccc(Cl)cc2F)cn1)N1CCN(C(=O)C2(O)CC2)CC1` [1-[(4-{[5-(4-chloro-2-fluorophenyl)pyrimidin-2-yl]carbonyl}piperazin-1-yl)carbonyl]cyclopropan-1-ol], the figure is 5.30 to 6.30.
Same read-out and setting: as for `O=C(c1ccc(-c2nc3cc(F)ccc3[nH]2)cc1)N1CCN(C(=O)C2(O)CC2)CC1` [1-[(4-{[4-(5-fluoro-1H-1,3-benzodiazol-2-yl)phenyl]carbonyl}piperazin-1-yl)carbonyl]cyclopropan-1-ol], the figure is 5.30 to 6.30; as for `O=C(c1ccc(-c2ccc3[nH]c(=O)oc3c2)cc1)N1CCN(C(=O)C2(O)CC2)CC1` [6-[4-({4-[(1-hydroxycyclopropyl)carbonyl]piperazin-1-yl}carbonyl)phenyl]-2,3-dihydro-1,3-benzoxazol-2-one], 5.30 to 6.30; as for `O=C(c1ccc(-c2cc(F)cc(C(F)(F)F)c2)cc1)N1CCN(C(=O)C2(O)CC2)CC1` [1-{[4-({4-[3-fluoro-5-(trifluoromethyl)phenyl]phenyl}carbonyl)piperazin-1-yl]carbonyl}cyclopropan-1-ol], 5.30 to 6.30.

Still in this experiment, the particulars now being: FASN enzymatic assay; Table 2-3.
Compound `COC(C)(C)C(=O)N1CCN(C(=O)c2ccc(-c3ccccc3)cc2)CC1` [2-methoxy-2-methyl-1-{4-[(4-phenylphenyl)carbonyl]piperazin-1-yl}propan-1-one] showed a pIC50 of no more than 5.30.
On to `CC(O)(C(=O)N1CCN(C(=O)c2ccc(-c3ccccc3)cc2)CC1)C(F)(F)F` (stereo not drawn) [3,3,3-trifluoro-2-hydroxy-2-methyl-1-{4-[(4-phenylphenyl)carbonyl]piperazin-1-yl}propan-1-one], for which the pIC50 was no more than 5.30.
As to `COc1c(F)cccc1-c1ccc(C(=O)N2CCN(C(=O)C3(O)CC3)CC2)cc1` [1-[(4-{[4-(3-fluoro-2-methoxyphenyl)phenyl]carbonyl}piperazin-1-yl)carbonyl]cyclopropan-1-ol], the negative-log IC50 (pIC50) was no more than 5.30.
The same measure, in the same setting: as for `Cc1nc(-c2ccc3scnc3c2)sc1C(=O)N1CCN(C(=O)C2(O)CC2)CC1` [1-[(4-{[2-(1,3-benzothiazol-5-yl)-4-methyl-1,3-thiazol-5-yl]carbonyl}piperazin-1-yl)carbonyl]cyclopropan-1-ol], the figure is no more than 5.30.
